Experimental data as given in PMC3382171 (PLoS ONE, 2012).

How the values were obtained:
Assay in all cases: biochemical
Settings in all cases: read-out: Upstate KSS % inhibition at 1uM
JNK1alpha1 = target: T1, JNK1alpha1 (Homo sapiens, UniProt P45983)
T1 construct: gene MAPK8; isoform alpha1
Experimental: (§1) In these selectivity assays the concentration of ATP was set to the Km value of ATP for each kinase tested to allow for a relative potency comparison between the various kinases. The compounds were tested at 1 µM final concentration. […] (A) Kinase selectivity screen (KSS) performed at Upstate Biotechnology. […] (B) KSS performed at University of Dundee (Division of Signal Transduction Therapy). […] (PDF) Click here for additional data file.

PAR-1Balpha = target: T2, PAR-1Balpha (Homo sapiens, UniProt Q7KZI7)
T2 construct: gene MARK2
Experimental: as §1

Rsk1 = target: T3, Rsk1 (Homo sapiens, UniProt Q15418)
T3 construct: gene RPS6KA1
Experimental: as §1

NEK6 = NEK6 (Homo sapiens, UniProt Q9HC98)
Experimental: as §1

Fes = Fes (Homo sapiens, UniProt P07332)
Fes, sequence (P07332 whole entry): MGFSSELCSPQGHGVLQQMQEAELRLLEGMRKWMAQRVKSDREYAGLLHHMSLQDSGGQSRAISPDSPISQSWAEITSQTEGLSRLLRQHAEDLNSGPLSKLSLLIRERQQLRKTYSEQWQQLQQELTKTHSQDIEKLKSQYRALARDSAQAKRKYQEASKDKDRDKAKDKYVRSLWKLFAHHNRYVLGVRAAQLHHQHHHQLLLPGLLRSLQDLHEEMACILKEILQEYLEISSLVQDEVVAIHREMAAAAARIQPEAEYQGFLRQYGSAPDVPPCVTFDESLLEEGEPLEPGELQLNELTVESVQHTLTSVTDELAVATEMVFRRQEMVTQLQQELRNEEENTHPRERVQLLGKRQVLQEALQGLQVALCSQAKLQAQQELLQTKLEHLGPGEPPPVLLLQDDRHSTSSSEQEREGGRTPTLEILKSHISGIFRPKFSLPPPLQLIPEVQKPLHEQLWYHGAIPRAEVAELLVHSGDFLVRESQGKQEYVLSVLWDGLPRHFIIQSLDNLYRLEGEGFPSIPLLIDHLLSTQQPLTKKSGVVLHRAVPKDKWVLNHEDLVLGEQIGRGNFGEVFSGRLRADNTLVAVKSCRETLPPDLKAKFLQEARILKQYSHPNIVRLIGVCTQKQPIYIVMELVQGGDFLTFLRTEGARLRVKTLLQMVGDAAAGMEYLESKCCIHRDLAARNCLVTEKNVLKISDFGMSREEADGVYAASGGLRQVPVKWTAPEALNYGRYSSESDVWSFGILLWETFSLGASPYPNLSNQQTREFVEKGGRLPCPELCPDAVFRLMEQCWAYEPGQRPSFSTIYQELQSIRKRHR
Experimental: as §1

PKBgamma = target: T4, PKBgamma (Homo sapiens, UniProt Q9Y243)
T4 construct: gene AKT3
Experimental: as §1

TAK1 = target: T5, TAK1 (Homo sapiens, UniProt O43318)
T5 construct: gene MAP3K7
Experimental: as §1

LIMK1 = LIMK1 (Homo sapiens, UniProt P53667)
Experimental: as §1

Tie2 = target: T6, Tie2 (Homo sapiens, UniProt Q02763)
T6 construct: gene TEK
T6 sequence (Q02763 whole entry): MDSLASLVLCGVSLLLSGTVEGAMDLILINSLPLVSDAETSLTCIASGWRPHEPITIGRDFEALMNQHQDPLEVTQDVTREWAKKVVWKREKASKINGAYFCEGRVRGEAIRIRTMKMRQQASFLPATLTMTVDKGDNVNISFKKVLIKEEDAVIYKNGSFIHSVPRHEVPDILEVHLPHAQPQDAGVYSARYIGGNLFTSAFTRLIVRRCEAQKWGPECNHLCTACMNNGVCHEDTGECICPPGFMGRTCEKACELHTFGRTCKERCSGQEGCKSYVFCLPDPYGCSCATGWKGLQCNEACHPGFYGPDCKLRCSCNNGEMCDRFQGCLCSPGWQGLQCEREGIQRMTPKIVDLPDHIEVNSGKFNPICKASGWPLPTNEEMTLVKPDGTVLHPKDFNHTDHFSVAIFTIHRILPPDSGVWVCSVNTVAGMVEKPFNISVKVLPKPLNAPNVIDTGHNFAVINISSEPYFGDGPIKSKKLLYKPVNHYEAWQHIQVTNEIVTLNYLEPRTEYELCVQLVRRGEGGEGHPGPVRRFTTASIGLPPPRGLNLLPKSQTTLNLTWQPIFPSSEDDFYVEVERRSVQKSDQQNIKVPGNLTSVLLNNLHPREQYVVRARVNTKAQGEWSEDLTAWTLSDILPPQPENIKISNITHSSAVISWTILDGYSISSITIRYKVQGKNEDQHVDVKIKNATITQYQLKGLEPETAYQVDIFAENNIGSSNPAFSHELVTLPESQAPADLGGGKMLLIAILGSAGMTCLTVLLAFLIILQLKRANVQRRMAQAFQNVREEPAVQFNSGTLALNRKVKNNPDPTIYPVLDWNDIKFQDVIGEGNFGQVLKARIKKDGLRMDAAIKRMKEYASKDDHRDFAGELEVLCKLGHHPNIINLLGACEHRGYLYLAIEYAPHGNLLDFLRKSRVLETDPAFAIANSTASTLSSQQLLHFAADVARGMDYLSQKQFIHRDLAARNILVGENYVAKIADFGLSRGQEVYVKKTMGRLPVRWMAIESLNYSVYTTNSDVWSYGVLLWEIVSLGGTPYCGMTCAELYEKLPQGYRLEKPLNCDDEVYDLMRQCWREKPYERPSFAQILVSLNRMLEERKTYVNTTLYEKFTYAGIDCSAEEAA
Experimental: as §1

PDGFRalpha = target: T7, PDGFRalpha (Homo sapiens, UniProt P16234)
T7 construct: gene PDGFRA
Experimental: as §1

PAK4 = PAK4 (Homo sapiens, UniProt O96013)
Experimental: as §1

Ros = target: T8, Ros (Homo sapiens, UniProt P08922)
T8 construct: gene ROS1
Experimental: as §1

Pyk2 = target: T9, Pyk2 (Homo sapiens, UniProt Q14289)
T9 construct: gene PTK2B
Experimental: as §1

ZIPK = target: T10, ZIPK (Homo sapiens, UniProt O43293)
T10 construct: gene DAPK3
T10 sequence (O43293 whole entry): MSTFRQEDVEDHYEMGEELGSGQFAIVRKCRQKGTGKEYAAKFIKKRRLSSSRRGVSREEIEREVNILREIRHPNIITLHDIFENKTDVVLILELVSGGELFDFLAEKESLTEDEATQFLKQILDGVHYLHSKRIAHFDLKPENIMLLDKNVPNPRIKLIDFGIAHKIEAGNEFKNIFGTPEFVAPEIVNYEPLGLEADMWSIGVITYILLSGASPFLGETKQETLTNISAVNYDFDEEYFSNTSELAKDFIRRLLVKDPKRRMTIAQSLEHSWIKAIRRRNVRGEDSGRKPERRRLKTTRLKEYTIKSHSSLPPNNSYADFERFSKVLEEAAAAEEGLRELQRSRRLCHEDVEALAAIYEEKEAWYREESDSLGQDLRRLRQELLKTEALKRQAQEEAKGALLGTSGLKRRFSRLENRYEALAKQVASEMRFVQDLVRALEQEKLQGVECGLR
Experimental: as §1

PRAK = target: T11, PRAK (Homo sapiens, UniProt Q8IW41)
T11 construct: gene MAPKAPK5
Experimental: as §1

IR = target: T12, IR (Homo sapiens, UniProt P06213)
T12 construct: gene INSR
Experimental: as §1

PKCgamma = target: T13, PKCgamma (Homo sapiens, UniProt P05129)
T13 construct: gene PRKCG
Experimental: as §1

Rsk3 = target: T14, Rsk3 (Homo sapiens, UniProt Q15349)
T14 construct: gene RPS6KA2
Experimental: as §1

PKG1alpha = target: T15, PKG1alpha (Homo sapiens, UniProt Q13976)
T15 construct: gene PRKG1; isoform alpha
Experimental: as §1

SRPK2 = SRPK2 (Homo sapiens, UniProt P78362)
Experimental: as §1

ALK = ALK (Homo sapiens, UniProt Q9UM73)
Experimental: as §1

BLK = BLK (Homo sapiens, UniProt P51451)
Experimental: as §1

PKCmu = target: T16, PKCmu (Homo sapiens, UniProt Q15139)
T16 construct: gene PRKD1
Experimental: as §1

PKBbeta = target: T17, PKBbeta (Homo sapiens, UniProt P31751)
T17 construct: gene AKT2
T17 sequence (P31751 whole entry): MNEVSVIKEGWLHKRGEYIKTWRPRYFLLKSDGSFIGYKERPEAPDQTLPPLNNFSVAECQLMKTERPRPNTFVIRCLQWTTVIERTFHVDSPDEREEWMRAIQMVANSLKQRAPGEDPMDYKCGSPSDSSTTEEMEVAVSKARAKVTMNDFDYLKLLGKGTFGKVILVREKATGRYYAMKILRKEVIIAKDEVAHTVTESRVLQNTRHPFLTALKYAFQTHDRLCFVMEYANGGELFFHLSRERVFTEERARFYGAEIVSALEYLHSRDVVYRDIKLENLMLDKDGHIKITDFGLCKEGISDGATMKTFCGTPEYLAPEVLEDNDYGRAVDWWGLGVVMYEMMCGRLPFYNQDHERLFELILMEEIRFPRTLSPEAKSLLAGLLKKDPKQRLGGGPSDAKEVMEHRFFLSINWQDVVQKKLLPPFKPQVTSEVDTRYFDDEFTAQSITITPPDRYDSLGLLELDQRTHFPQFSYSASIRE
Experimental: as §1

FAK = target: T18, FAK (Homo sapiens, UniProt Q05397)
T18 construct: gene PTK2
T18 sequence (Q05397 whole entry): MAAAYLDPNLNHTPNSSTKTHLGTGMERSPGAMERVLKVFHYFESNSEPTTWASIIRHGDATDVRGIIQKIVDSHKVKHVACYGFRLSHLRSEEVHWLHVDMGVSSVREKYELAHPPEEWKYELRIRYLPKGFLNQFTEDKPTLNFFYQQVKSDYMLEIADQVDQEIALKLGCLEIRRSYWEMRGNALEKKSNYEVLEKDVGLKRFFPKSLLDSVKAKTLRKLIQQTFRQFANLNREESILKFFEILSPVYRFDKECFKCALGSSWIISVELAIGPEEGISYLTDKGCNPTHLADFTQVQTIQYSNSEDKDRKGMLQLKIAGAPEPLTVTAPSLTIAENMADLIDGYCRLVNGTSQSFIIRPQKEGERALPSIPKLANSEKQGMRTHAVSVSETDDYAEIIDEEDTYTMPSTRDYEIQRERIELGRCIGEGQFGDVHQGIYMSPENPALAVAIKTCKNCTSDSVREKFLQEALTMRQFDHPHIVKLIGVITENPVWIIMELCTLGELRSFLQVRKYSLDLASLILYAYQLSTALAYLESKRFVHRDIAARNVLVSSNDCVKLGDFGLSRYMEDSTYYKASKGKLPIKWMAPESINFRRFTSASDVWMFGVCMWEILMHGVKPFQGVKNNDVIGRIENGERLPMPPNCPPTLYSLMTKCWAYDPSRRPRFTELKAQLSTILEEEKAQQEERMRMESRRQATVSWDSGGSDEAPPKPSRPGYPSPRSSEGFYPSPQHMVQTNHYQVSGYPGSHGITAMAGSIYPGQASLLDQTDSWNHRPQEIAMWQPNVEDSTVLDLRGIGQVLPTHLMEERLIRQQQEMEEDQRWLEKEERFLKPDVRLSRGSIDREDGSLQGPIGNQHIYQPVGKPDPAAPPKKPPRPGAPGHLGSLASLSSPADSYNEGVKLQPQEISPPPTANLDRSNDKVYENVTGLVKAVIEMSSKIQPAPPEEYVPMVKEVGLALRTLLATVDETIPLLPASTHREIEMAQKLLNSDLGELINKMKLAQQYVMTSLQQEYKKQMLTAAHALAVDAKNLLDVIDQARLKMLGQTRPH
Experimental: as §1

ASK1 = target: T19, ASK1 (Homo sapiens, UniProt Q99683)
T19 construct: gene MAP3K5
Experimental: as §1

mouse MKK4 = target: T20, mouse MKK4 (Mus musculus, UniProt P47809)
T20 construct: gene Map2k4
Experimental: as §1

CHK2 = target: T21, CHK2 (Homo sapiens, UniProt O96017)
T21 construct: gene CHEK2
T21 sequence (O96017 whole entry): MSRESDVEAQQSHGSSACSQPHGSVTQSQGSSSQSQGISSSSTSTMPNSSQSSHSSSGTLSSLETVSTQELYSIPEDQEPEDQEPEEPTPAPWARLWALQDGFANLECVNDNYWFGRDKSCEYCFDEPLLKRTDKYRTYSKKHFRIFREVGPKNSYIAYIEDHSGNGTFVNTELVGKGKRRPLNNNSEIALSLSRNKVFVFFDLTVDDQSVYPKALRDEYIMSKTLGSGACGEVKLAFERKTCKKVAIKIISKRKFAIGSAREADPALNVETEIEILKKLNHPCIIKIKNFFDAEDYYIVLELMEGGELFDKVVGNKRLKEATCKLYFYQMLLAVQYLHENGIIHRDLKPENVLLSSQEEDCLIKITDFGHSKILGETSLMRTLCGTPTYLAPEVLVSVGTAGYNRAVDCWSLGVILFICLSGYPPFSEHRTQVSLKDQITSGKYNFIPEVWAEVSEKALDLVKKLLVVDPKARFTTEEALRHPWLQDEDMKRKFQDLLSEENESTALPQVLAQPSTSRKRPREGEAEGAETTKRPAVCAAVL
Experimental: as §1

PKCalpha = target: T22, PKCalpha (Homo sapiens, UniProt P17252)
T22 construct: gene PRKCA
Experimental: as §1

PKCdelta = target: T23, PKCdelta (Homo sapiens, UniProt Q05655)
T23 construct: gene PRKCD
Experimental: as §1

CAMKIIbeta = target: T24, CAMKIIbeta (Homo sapiens, UniProt Q13554)
T24 construct: gene CAMK2B
Experimental: as §1

PKCiota = target: T25, PKCiota (Homo sapiens, UniProt P41743)
T25 construct: gene PRKCI
Experimental: as §1

CDK2/CyclinA = CDK2/CyclinA (Homo sapiens, UniProt P24941)
Experimental: as §1

PASK = PASK (Homo sapiens, UniProt Q96RG2)
Experimental: as §1

T1 sequence (P45983 whole entry, canonical isoform): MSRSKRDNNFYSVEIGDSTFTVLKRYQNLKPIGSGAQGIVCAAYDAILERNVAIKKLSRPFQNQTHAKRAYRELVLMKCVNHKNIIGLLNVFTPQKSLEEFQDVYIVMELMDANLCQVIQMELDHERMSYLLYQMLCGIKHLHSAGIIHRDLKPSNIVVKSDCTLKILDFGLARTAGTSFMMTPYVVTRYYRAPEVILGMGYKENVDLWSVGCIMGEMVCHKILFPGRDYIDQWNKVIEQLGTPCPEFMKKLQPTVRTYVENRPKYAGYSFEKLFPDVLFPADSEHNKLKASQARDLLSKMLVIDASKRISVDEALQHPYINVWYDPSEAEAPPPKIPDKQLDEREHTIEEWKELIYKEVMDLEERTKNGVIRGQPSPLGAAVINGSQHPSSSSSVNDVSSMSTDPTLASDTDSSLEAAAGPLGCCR

OCCn1cc(-c2cnc3nnn(Cc4ccc5ncccc5c4)c3n2)cn1 [METi, PF-04217903] was tested, and the inhibition at 1 µM (JNK1alpha1) was 0%, the inhibition at 1 µM (PAR-1Balpha) was 17% and the inhibition at 1 µM (Rsk1) was -11%. The inhibition at 1 µM (NEK6) was -14%, the inhibition at 1 µM (Fes) was -61% and the inhibition at 1 µM (PKBgamma) was 5%. For the same molecule, the inhibition at 1 µM (TAK1) was -7%, the inhibition at 1 µM (LIMK1) was -7% and the inhibition at 1 µM (Tie2) was -32%. For the same molecule, the inhibition at 1 µM (PDGFRalpha) was -28%, the inhibition at 1 µM (PAK4) was 1% and the inhibition at 1 µM (Ros) was 0%. The inhibition at 1 µM (Pyk2) was -17%, the inhibition at 1 µM (ZIPK) was 0% and the inhibition at 1 µM (PRAK) was -2%. It also gave an inhibition at 1 µM (IR) of 8%, an inhibition at 1 µM (PKCgamma) of 5% and an inhibition at 1 µM (Rsk3) of -3%. The inhibition at 1 µM (PKG1alpha) was 3%, the inhibition at 1 µM (SRPK2) was -2% and the inhibition at 1 µM (ALK) was 54%. It also gave an inhibition at 1 µM (BLK) of 5%, an inhibition at 1 µM (PKCmu) of 5% and an inhibition at 1 µM (PKBbeta) of -6%. It also gave an inhibition at 1 µM (FAK) of -9%, an inhibition at 1 µM (ASK1) of -11% and an inhibition at 1 µM (mouse MKK4) of -2%. For the same molecule, the inhibition at 1 µM (CHK2) was 0%, the inhibition at 1 µM (PKCalpha) was -7% and the inhibition at 1 µM (PKCdelta) was 10%. It also gave an inhibition at 1 µM (CAMKIIbeta) of -6%, an inhibition at 1 µM (PKCiota) of 0% and an inhibition at 1 µM (CDK2/CyclinA) of 0%. The inhibition at 1 µM (PASK) was -13%.
